Test results published in patent US20230348364A1, “ISOTOPIC THYROMIMETIC COMPOUNDS” (Autobahn Therapeutics, Inc., priority 2020, published 2023).

What was measured:
TRβ = biological target: T1, TRβ (Homo sapiens, UniProt P10828); assay: Transactivation assay (DR4 TRE luciferase reporter, HEK 293), TRβ; format: cell-based; settings: HEK 293 transfected with full length TRβ-CMV, 24 hours, firefly luciferase normalized to Renilla
T1 construct: TR expression vector (full length TRα-CMV or TRβ-CMV); expressed in transfected cells; host or cells: HEK 293
T1 sequence (P10828 1-461): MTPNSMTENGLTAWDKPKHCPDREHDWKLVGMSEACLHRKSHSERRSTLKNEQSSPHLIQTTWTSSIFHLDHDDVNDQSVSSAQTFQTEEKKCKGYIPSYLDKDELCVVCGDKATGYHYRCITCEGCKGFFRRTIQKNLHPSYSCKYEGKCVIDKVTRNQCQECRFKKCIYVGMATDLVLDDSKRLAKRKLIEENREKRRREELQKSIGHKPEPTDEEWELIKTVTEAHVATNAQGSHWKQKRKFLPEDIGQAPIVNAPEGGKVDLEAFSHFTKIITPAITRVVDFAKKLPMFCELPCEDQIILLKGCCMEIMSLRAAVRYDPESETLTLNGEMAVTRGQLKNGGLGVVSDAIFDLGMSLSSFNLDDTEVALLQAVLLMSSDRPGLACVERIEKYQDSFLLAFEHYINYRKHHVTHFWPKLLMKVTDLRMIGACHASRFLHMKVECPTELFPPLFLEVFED
Description: (§1) The cells were trypsinized with 0.25% trypsin, then diluted to 5×10^5 cells/mL with high glucose DMEM. […] 1.5 µg of TR expression vector (full length TRα-CMV or TRβ-CMV), 1.5 µg of a reporter plasmid containing a DR4 thyroid hormone response element (TRE) direct repeat spaced by four nucleotides (AGGTCAcaggAGGTCA) cloned upstream of a minimal thymidine kinase promoter linked to a firefly luciferase coding sequence, and 0.75 µg of a pRL-SV40 constitutive Renilla luciferase reporter plasmid were diluted into 540 µl of OptiMEM. 27 µL of lipofectamine reagent was diluted into 540 µL of OptiMEM. The plasmid and lipofectamine dilutions were combined then incubated at RT for 10 min. The mixture was then diluted into 4.29 mL of OptiMEM. Plates were washed with 100 µL of phosphate buffered saline (PBS) at pH 7.2 without magnesium or calcium chloride per well. Transfection mixtures were added at 50 µL per well, then incubated at 37° C. for 4 hours. Modified DME/F-12 Ham’s medium without phenol red containing 15 mM HEPES and bicarbonate, 5 mM L-glutamine, charcoal-stripped FBS, 50 units/mL penicillin and 50 µg/mL streptomycin was added at 50 µL per well, then the plates were incubated at 37° C. for 20 hours. Drug stocks were made at 10 mM in DMSO, then serially diluted to 1X concentrations in DME/F-12 Ham’s. Plates were washed with 100 µL of PBS (pH 7.2) per well. 100 µL of each drug stock was added to the wells in triplicate, and then the plates are incubated at 37° C. for 24 hours.
(§2) Cells were assayed for luciferase activity using the Promega DualGlo kit. 50 µl of Luciferase Reagent was added per well, the plate was rocked for 15 min at RT, and then the plate was read for firefly luciferase activity. A 50 µl volume of Stop & Glo Reagent was added per well, then the plate was read for Renilla luciferase activity.

TRα = biological target: T2, TRα (Homo sapiens, UniProt P10827); assay: Transactivation assay (DR4 TRE luciferase reporter, HEK 293), TRα; format: cell-based; settings: HEK 293 transfected with full length TRα-CMV, 24 hours, firefly luciferase normalized to Renilla
T2 construct: TR expression vector (full length TRα-CMV or TRβ-CMV); expressed in transfected cells; host or cells: HEK 293
T2 sequence (P10827 1-410 isoform P10827-2): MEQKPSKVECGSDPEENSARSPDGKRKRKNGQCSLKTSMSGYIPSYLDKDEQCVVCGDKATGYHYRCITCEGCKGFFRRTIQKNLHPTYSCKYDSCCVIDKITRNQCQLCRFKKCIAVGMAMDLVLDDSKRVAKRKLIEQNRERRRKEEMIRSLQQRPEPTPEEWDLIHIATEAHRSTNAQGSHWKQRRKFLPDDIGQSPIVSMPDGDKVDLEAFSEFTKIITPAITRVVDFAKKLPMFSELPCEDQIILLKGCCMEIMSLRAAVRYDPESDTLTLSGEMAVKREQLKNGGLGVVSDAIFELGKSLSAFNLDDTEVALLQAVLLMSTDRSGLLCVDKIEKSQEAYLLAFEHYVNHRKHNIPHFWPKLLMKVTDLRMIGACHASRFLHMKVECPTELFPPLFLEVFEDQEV
Description: as §1, §2

[1] = biological target: T3, Purified recombinant human FAAH (rhFAAH) (Homo sapiens, UniProt O00519); assay: FAAH substrate evaluation (formation of acid metabolite); format: biochemical; settings: 0.5 ng/µL rhFAAH, 1 µM test compound, Tris-EDTA buffer pH 8.0, room temperature, 0-60 minutes
T3 construct: purchased Cayman Chemical (Ann Arbor, MI, USA)
T3 sequence (O00519 1-579): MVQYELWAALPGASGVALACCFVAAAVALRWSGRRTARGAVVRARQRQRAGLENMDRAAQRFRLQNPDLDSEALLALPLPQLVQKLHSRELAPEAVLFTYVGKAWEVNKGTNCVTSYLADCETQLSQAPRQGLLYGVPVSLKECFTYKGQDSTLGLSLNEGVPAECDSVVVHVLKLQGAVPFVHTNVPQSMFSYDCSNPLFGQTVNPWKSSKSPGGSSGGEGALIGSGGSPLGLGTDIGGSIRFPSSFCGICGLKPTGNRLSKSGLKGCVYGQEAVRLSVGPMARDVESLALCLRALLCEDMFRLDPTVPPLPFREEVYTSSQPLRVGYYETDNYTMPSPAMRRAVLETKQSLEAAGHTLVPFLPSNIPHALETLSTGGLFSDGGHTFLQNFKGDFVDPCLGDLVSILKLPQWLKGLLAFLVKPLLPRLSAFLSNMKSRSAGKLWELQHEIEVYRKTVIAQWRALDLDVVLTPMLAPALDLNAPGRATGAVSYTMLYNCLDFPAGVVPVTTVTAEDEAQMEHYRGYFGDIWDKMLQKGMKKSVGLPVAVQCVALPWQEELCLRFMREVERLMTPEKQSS
Description: Purified recombinant human FAAH (rhFAAH) was purchased from Cayman Chemical (Ann Arbor, MI, USA). The total volume for each incubation was 400 µL containing a final 0.5 ng/µL rhFAAH, 1 µM test compound, 1.25% ethanol or 1 µM PF-3845 (FAAH inhibitor), and 0.1% bovine serum albumin in Tris-EDTA buffer at pH 8.0). The positive control was LL-341001. The incubation was conducted at the room temperature. At 0, 5, 15, 30 and 60 minutes, an aliquot of 30 µL reaction mixtures was removed and mixed with 300 µL acetonitrile containing 5 ng/mL terfenadine and 10 ng/mL tolbutamide as internal standards to quench the reaction. The resulting mixture was centrifuged at 4000 rpm, 4° C. for 15 minutes, and 100 µL supernatant was ready for LC-MS/MS analysis to measure the formation of acid metabolite.
Acquity Ultra Performance LC system from Waters was used for sample analysis. The chromatography was performed on a reverse phase Kinetex 2.6 µm C18 column, 2.1 × 30 mm, 100 Å. The mobile phase A comprised of 0.1% formic acid in water and mobile phase B comprised of 0.1% formic acid in acetonitrile with a 2-min run time at the flow rate of 0.8 mL/min for the acid metabolite from positive control or a 1.5 min run time at the flow rate of 0.9 mL/min for the acid metabolite of test compounds. The mass spectrometer (API-5500 and API Q Trap 4000 Applied Biosystems/MDS SCIEX Instruments, Framingham, MA, USA) was operated under ESI positive or negative ion MRM mode.
The formation of acid metabolite was monitored and quantified using one calibration point of 1 µM. The observed rate constant (ke) for the acid metabolite formation was calculated by plotting the metabolite concentration versus time of incubation with the slope being ke and is shown in Table 1.

## 2-(3,5-dichloro-4-(hydroxy-3-(propan-2-yl-d7)benzyl)phenoxy)acetic Acid [Compound 18]
TRβ
  EC50: 1 to 1000 nM
TRα
  EC50: 1 to 1000 nM

## [2H]C([2H])([2H])C([2H])(c1cc(Cc2c(Cl)cc(OCC(=O)NC)cc2Cl)ccc1O)C([2H])([2H])[2H] [Compound 1, 2-(3,5-dichloro-4-(4-hydroxy-3-(propan-2-yl-d7)benzyl)phenoxy)-N-Methylacetamide]
[1]
  ke (observed rate constant for the acid metabolite formation): A (A = ke is less than 3.0 and more than or equal to 0.1.)

## [2H]C([2H])(c1ccc(O)c(C(C)C)c1)c1c(Cl)cc(OCC(=O)O)cc1Cl [Compound 4, 2-(3,5-dichloro-4-((4-hydroxy-3-isopropylphenyl)methyl-d2)phenoxy)acetic Acid]
TRβ
  EC50: 1 to 1000 nM
TRα
  EC50: 1 to 1000 nM

## [2H]C([2H])(c1ccc(O)c(C(C)C)c1)c1c(Cl)cc(OCC(N)=O)cc1Cl [Compound 5, 2-(3,5-dichloro-4-((4-hydroxy-3-isopropylphenyl)methyl-d2)phenoxy)acetamide]
[1]
  ke (observed rate constant for the acid metabolite formation): A (A = ke is less than 3.0 and more than or equal to 0.1.)

## [2H]c1c(Cl)c(Cc2ccc(O)c(C(C)C)c2)c(Cl)c([2H])c1OCC(=O)O [Compound 6, 2-(3,5-dichloro-4-(4-hydroxy-3-isopropylbenzyl)phenoxy-2,6-d2)acetic Acid]
TRβ
  EC50: 1 to 1000 nM
TRα
  EC50: 1 to 1000 nM

## [2H]c1c(Cl)c(Cc2ccc(O)c(C(C)C)c2)c(Cl)c([2H])c1OCC(N)=O [Compound 7, 2-(3,5-dichloro-4-(4-hydroxy-3-isopropylbenzyl)phenoxy-2,6-d2)acetamide]
[1]
  ke (observed rate constant for the acid metabolite formation): A (A = ke is less than 3.0 and more than or equal to 0.1.)

## [2H]C([2H])(Oc1cc(Cl)c(Cc2ccc(O)c(C(C)C)c2)c(Cl)c1)C(=O)O [Compound 8, 2-(3,5-dichloro-4-(4-hydroxy-3-isopropylbenzyl)phenoxy)acetic-2,2-d2 Acid]
TRβ
  EC50: 1 to 1000 nM
TRα
  EC50: 1 to 1000 nM

## [2H]C([2H])(Oc1cc(Cl)c(Cc2ccc(O)c(C(C)C)c2)c(Cl)c1)C(N)=O [Compound 9, 2-(3,5-dichloro-4-(4-hydroxy-3-isopropylbenzyl)phenoxy)acetamide-2,2-d2]
[1]
  ke (observed rate constant for the acid metabolite formation): A (A = ke is less than 3.0 and more than or equal to 0.1.)

## [2H]C([2H])(c1ccc(O)c(C(C)C)c1)c1c(C)cc(OCC(=O)NC)cc1C [Compound 13, 2-(4-((4-hydroxy-3-isopropylphenyl)methyl-d2)-3,5-dimethylphenoxy)-N-methylacetamide]
[1]
  ke (observed rate constant for the acid metabolite formation): A (A = ke is less than 3.0 and more than or equal to 0.1.)

## [2H]C([2H])(Oc1cc(C)c(Cc2ccc(O)c(C(C)C)c2)c(C)c1)C(=O)NC [Compound 17, 2-(4-(4-hydroxy-3-isopropylbenzyl)-3,5-dimethylphenoxy)-N-methylacetamide-2,2-d2]
[1]
  ke (observed rate constant for the acid metabolite formation): A (A = ke is less than 3.0 and more than or equal to 0.1.)

## [2H]C([2H])([2H])C([2H])(c1cc(Cc2c(Cl)cc(OCC(=O)O)cc2Cl)ccc1O)C([2H])([2H])[2H] [Compound A-15]
TRβ
  EC50: 1 to 1000 nM
TRα
  EC50: 1 to 1000 nM
